Assay results from PubChem BioAssay (NCI).
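Cells were grown in 96-well plates and exposed to each compound for 48 hours at five concentrations; endpoints were interpolated linearly between bracketing concentrations, or set to the highest concentration if not reached. Definition used: TGI = concentration required for complete inhibition of growth.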

Columns and labels:
Assay in all cases: NCI tumour cell line growth inhibition, 48 h
KM12 colon = system: KM12 colon
CCRF-CEM leukemia = system: CCRF-CEM leukemia
DLD-1 colon = system: DLD-1 colon
XF 498 CNS = system: XF 498 CNS
HOP-92 NSCLC = system: HOP-92 NSCLC
SNB-75 CNS = system: SNB-75 CNS
SW-620 colon = system: SW-620 colon
SF-539 CNS = system: SF-539 CNS
NCI-H226 lung = system: NCI-H226 lung
U251 CNS = system: U251 CNS
UO-31 renal = system: UO-31 renal
LOX IMVI melanoma = system: LOX IMVI melanoma
OVCAR-8 ovarian = system: OVCAR-8 ovarian
NCI-H23 lung = system: NCI-H23 lung
SNB-19 CNS = system: SNB-19 CNS
RXF 393 renal = system: RXF 393 renal
MCF7 breast = system: MCF7 breast
SK-MEL-5 melanoma = system: SK-MEL-5 melanoma
EKVX NSCLC = system: EKVX NSCLC
OVCAR-4 ovarian = system: OVCAR-4 ovarian
MALME-3M melanoma = system: MALME-3M melanoma
COLO 205 colon = system: COLO 205 colon
CAKI-1 renal = system: CAKI-1 renal
SK-OV-3 ovarian = system: SK-OV-3 ovarian
SF-268 CNS = system: SF-268 CNS
P388/ADR leukemia = system: P388/ADR leukemia
KM20L2 colon = system: KM20L2 colon
SN12C renal = system: SN12C renal
HOP-62 NSCLC = system: HOP-62 NSCLC
OVCAR-5 ovarian = system: OVCAR-5 ovarian
DMS 273 small cell lung = system: DMS 273 small cell lung
RPMI-8226 leukemia = system: RPMI-8226 leukemia
A549 NSCLC = system: A549 NSCLC
IGROV1 ovarian = system: IGROV1 ovarian
OVCAR-3 ovarian = system: OVCAR-3 ovarian
SK-MEL-2 melanoma = system: SK-MEL-2 melanoma
HOP-18 NSCLC = system: HOP-18 NSCLC
SF-295 CNS = system: SF-295 CNS
NCI/ADR-RES ovarian = system: NCI/ADR-RES ovarian
HT29 colon = system: HT29 colon
SNB-78 CNS = system: SNB-78 CNS
DMS 114 small cell lung = system: DMS 114 small cell lung
MOLT-4 leukemia = system: MOLT-4 leukemia
A498 renal = system: A498 renal
SN12K1 renal = system: SN12K1 renal
HCT-116 colon = system: HCT-116 colon
HCC-2998 colon = system: HCC-2998 colon
HCT-15 colon = system: HCT-15 colon
K-562 leukemia = system: K-562 leukemia
UACC-62 melanoma = system: UACC-62 melanoma
NCI-H460 lung = system: NCI-H460 lung
HL-60(TB) leukemia = system: HL-60(TB) leukemia
UACC-257 melanoma = system: UACC-257 melanoma
P388 leukemia = system: P388 leukemia
SK-MEL-28 melanoma = system: SK-MEL-28 melanoma
M19-MEL melanoma = system: M19-MEL melanoma

Cc1cc(C(=O)NCCN(C)C)c2nc3ccccc3cc2c1
TGI (KM12 colon): 14.1 µM | TGI (CCRF-CEM leukemia): 9.57 µM | TGI (DLD-1 colon): 10.9 µM | TGI (XF 498 CNS): 3.69 µM | TGI (HOP-92 NSCLC): 5.27 µM | TGI (SNB-75 CNS): 11.8 µM | TGI (SW-620 colon): 8.88 µM | TGI (SF-539 CNS): 12.7 µM | TGI (NCI-H226 lung): 3.33 µM | TGI (U251 CNS): 10.7 µM | TGI (UO-31 renal): 3.93 µM | TGI (LOX IMVI melanoma): 3.5 µM | TGI (OVCAR-8 ovarian): 4.28 µM | TGI (NCI-H23 lung): 5.93 µM | TGI (SNB-19 CNS): 6.89 µM | TGI (RXF 393 renal): 4.32 µM | TGI (MCF7 breast): 8 µM | TGI (SK-MEL-5 melanoma): 3.6 µM | TGI (EKVX NSCLC): 0.971 µM | TGI (OVCAR-4 ovarian): 10.6 µM | TGI (MALME-3M melanoma): 4.28 µM | TGI (COLO 205 colon): 3.54 µM | TGI (CAKI-1 renal): 1.29 µM | TGI (SK-OV-3 ovarian): 8.97 µM | TGI (SF-268 CNS): 10.2 µM | TGI (P388/ADR leukemia): 2.18 µM | TGI (KM20L2 colon): 4.31 µM | TGI (SN12C renal): 7.26 µM | TGI (HOP-62 NSCLC): 6.38 µM | TGI (OVCAR-5 ovarian): 8.56 µM | TGI (DMS 273 small cell lung): 10.8 µM | TGI (RPMI-8226 leukemia): 5.71 µM | TGI (A549 NSCLC): 6.81 µM | TGI (IGROV1 ovarian): 12.6 µM | TGI (OVCAR-3 ovarian): 8.98 µM | TGI (SK-MEL-2 melanoma): 7.26 µM | TGI (HOP-18 NSCLC): 7.16 µM | TGI (SF-295 CNS): 3.91 µM | TGI (NCI/ADR-RES ovarian): 4.62 µM | TGI (HT29 colon): 5.7 µM | TGI (SNB-78 CNS): 14.5 µM | TGI (DMS 114 small cell lung): 4.12 µM | TGI (MOLT-4 leukemia): > 21.8 µM | TGI (A498 renal): 6.37 µM | TGI (SN12K1 renal): 2.6 µM | TGI (HCT-116 colon): 10.1 µM | TGI (HCC-2998 colon): 17.7 µM | TGI (HCT-15 colon): 11.4 µM | TGI (K-562 leukemia): > 31.3 µM | TGI (UACC-62 melanoma): 5.05 µM | TGI (NCI-H460 lung): 2.36 µM | TGI (HL-60(TB) leukemia): 3.95 µM | TGI (UACC-257 melanoma): 5.02 µM | TGI (P388 leukemia): 1.68 µM | TGI (SK-MEL-28 melanoma): 10.7 µM | TGI (M19-MEL melanoma): 4.42 µM
